# Earlier results in patent publication US20130280348A1, “Carbon dioxide and saline nasal delivery methods and treatments” (Glynn Tech, Inc., priority 2012, published 2013).
# What was measured:
# [1] = test system: seasonal allergic rhinitis (SAR); conditions: intranasal
# [2] = test system: nasal allergen challenge (grass or ragweed allergen) in subjects with SAR
smiles,measurement,setting,value
"O=C=O [CO(2), carbon dioxide]",symptoms of seasonal allergic rhinitis (SAR),[1],reduce symptoms
same,histamine levels in ipsilateral nasal secretions,"[2]; after pretreatment with CO(2), increased significantly with sham treatment",did not increase
same,ipsilateral secretion weights,[2]; compared with no treatment,numerically reduced
same,sneezes,"[2]; compared with no treatment, 12 subjects with SAR, 20-second CO(2) exposure 30 minutes before challenge, p=0.05",significant reduction
same,bilateral runny nose symptoms,"[2]; compared with no treatment, p=0.01",significant reduction
same,"contralateral secretion weights (reflex secretory response to allergen, primary outcome)","[2]; compared with no treatment, p=0.04",significant reduction
same,sensation reported by subjects during exposure,[2]; during 20-second exposure to CO(2),transient burning sensation
same,acute response to allergen challenge,[2]; treatment with nasal CO(2),partial reduction
same,reflex responses,[2]; treatment with nasal CO(2),reduced
